One data set addresses T1, human DLL3 (Homo sapiens, UniProt Q9NYJ7).
T1 sequence (Q9NYJ7 27-618): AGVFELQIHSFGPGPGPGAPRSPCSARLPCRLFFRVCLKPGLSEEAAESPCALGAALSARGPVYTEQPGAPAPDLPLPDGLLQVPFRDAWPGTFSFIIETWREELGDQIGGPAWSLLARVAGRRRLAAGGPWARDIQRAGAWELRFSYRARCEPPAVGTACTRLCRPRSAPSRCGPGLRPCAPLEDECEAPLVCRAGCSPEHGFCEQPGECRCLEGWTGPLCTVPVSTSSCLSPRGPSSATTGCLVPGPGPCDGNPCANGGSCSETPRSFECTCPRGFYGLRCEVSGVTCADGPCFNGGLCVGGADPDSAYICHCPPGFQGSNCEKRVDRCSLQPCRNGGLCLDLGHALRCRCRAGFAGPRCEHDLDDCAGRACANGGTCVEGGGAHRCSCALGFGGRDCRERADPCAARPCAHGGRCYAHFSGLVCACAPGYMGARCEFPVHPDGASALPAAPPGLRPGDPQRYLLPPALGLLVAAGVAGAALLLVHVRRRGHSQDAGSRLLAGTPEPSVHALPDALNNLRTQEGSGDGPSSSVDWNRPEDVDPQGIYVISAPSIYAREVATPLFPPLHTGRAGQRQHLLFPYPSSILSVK
Nature of the data set: Affinity determination by Surface Plasmon Resonance (SPR). The format is binding. The conditions noted are these: 25° C., biotinylated human DLL3 immobilized on streptavidin sensor chip, 1:1 binding model; read-out: SPR KD. The method, boiled down: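 Biotinylated human DLL3 was captured on a streptavidin chip with a reference surface. Compounds at several concentrations were injected at 100 μL/minute in phosphate buffer (137 mM NaCl, 2.7 mM KCl, 0.05% P20, 2% DMSO). Affinity and kinetics came from 1:1 model fits of the sensorgrams.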

The test system of the next data set is SHP-77 tumors. Nature of the data set: Ex vivo biodistribution of radiolabeled peptides in nude mice bearing SHP-77 tumors. The conditions noted are these: [177Lu]Lu labelling, nude mice bearing SHP-77 tumors (n = 3), 24 hours post-injection. The method, then:
Mice were intravenously injected (via the lateral tail vein) with a bolus dose of the radiolabeled peptides for ex vivo biodistribution studies when tumor volumes were in range of 200-400 mm^3 for xenograft mice and when age of the mice was 5-7 weeks for tumor naïve mice studies. To assess the amount of radionuclide injected into individual mice the syringe was assayed in a dose calibrator before and after injection for [^177Lu]Lu-peptide.
Mice were euthanized at pre-determined time points and selected tissues were resected and collected into pre-weighed tubes. The tubes were then reweighed post resection, the difference giving the weight of each tissue. Radioactivity in each tissue was measured using a gamma counter. Counts were decay corrected to the time of injection and percentage of injected activity per gram (% IA/g) was calculated for each tissue based on the injected activity into each individual mouse. Injected activity was converted to counts based on the sensitivity of the gamma counter. The counts in tissue were then converted to the percentage of injected activity and this was divided by the mass of tissue to give % IA/g.

Data set [1] has as its system CT26.DLL3 cells. Put plainly: Cell binding (total uptake) of [177Lu]Lu-test peptide, CT26.DLL3 cells. To be noted: 1 hour at 37° C. The format is cell-based. The method, then:
(§1) [^177Lu]LuCl3 was received from venders in HCl solution. For every mCi of [^177Lu]LuCl3 added to the reaction vial (1.5 mL Eppendorf vial), ammonium acetate buffer (0.2 M, pH 4.9, 100 μL, containing 1% w/v ascorbic acid and 6% v/v ethanol) and peptide conjugate (1 nmol). A peptide conjugate of the present disclosure is also referred to herein as a “chelator-peptide”. The pH of the solution was determined to be approximately 5 by using pH strips. The reaction vial was incubated at 80° C., 700 RPM for 17-20 minutes. A sample from the reaction was analyzed by RP-HPLC using an Agilent Infinity II 1260 HPLC to determine reaction completion and radiochemical purity of [^177Lu]Lu-chelator-peptide. HPLC conditions: Waters XBridge BEH C18 Column, 130 Å, 3.5 um, 4.6 mm×250 mm; mobile phase: Solvent A=water (with 0.1% formic acid), solvent B=acetonitrile (with 0.1% formic acid). Gradients: 25-45% B in 10 minutes, 45-65% B in 12 minutes, 65-90% in 6 minutes at a flow rate of 0.5 mL/minute. Required amounts of the product was formulated in 1% PBSA for cell studies.
(§2) The study was conducted using SHP-77, CT26.WT, and CT26.DLL3 cells (Table 7) Adherent cell studies: The cells were cultured in appropriate culture media (20 mL) in tissue culture treated T150 flasks at 37° C. and 5% CO2. Adherent cells were detached (60-70% confluent) using 5 mL Versene at 37° C. for 3 minutes. After confirming the viability using countess and count of detached cells using Trypan blue, the cells were centrifuged at 4° C. for 5 minutes (1,000 rpm). The cell pellet obtained was washed once with PBS and resuspended in 1% PBSA to obtain the desired cell concentration (5-25 million cells/mL).
(§3) Cell numbers used for the assay were in the range of 5 million cells/condition −25 million cells/condition.
(§4) Total uptake: Cells were incubated with 300 μL (0.8 μCi) of the incubation buffer (containing radiolabeled peptide [^177Lu] Lu-test peptide) for 1 hour at 37° C. (Table 8). Post incubation, the cells were pelleted and washed 2 times using cold PBS+1% BSA. The supernatant and washes were combined and counted together as “unbound fraction” in a gamma counter. The cells were then resuspended in 300 μL of 1% PBS+1% BSA and counted in the gamma counter as “bound fraction”.
(§5) In these Tables, “A” represents %≤25; “B” represents 25<%≤50; “C” represents %>50.

Data set [2] has as its system CT26.DLL3 cells. Put plainly: Internalization (out of bound fraction) of [177Lu]Lu-test peptide, CT26.DLL3 cells. The format is cell-based. To be noted: 1 hour at 37° C., glycine pH 2.5 wash. Here is the method: as §1, §2, §3, §4
Internalization: The resuspended cells in 300 μl of 1% PBSA and counted in the gamma counter as “bound fraction” were collected in 1.5 mL Eppendorf tube and pelleted. The pelleted cells were incubated with 300 μl of 50 mM Glycine pH=2.5 for 3 minutes and then pelleted discarding the supernatant. This process was repeated one more time. The pelleted cells were washed with 300 μl of cold 1% PBSA and then resuspended in 300 μl 0.3M NaOH. This was counted in the gamma counter as “internalized fraction”.
as §5

The next data set concerns the target T2, DLL3 on CT26.DLL3 cells (Homo sapiens (Human), UniProt Q9NYJ7 27-618).
T2 construct: CT26.DLL3 are engineered cells to express DLL3
T2 sequence: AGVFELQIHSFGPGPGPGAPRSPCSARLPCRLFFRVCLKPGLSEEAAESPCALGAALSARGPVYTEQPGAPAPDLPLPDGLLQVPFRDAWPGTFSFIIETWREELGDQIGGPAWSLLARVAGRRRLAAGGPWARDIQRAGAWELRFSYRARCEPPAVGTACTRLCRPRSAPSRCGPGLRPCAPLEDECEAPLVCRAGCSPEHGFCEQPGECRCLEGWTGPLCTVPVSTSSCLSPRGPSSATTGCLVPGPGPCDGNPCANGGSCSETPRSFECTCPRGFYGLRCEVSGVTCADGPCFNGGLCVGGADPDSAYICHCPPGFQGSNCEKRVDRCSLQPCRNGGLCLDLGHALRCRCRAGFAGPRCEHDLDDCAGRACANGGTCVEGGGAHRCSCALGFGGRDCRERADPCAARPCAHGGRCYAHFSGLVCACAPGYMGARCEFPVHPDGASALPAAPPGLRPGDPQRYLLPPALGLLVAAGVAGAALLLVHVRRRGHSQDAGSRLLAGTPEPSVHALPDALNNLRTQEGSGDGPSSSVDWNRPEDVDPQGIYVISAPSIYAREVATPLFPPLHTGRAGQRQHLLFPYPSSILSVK
Put plainly: 177Lu-peptide bound to CT26.DLL3 cells, gamma counting; letter grade, key in paragraph 629. Here is the method:
as §2
Total uptake: Cells were incubated with 300 μL (0.8 μCi) of the incubation buffer (containing radiolabeled peptide [¹⁷⁷Lu] Lu-test peptide) for 1 hour at 37° C. (Table 8). Post incubation, the cells were pelleted and washed 2 times using cold PBS+1% BSA. The supernatant and washes were combined and counted together as “unbound fraction” in a gamma counter. The cells were then resuspended in 300 μL of 1% PBS+1% BSA and counted in the gamma counter as “bound fraction”.

The values below come from patent US20250011368A1, “DLL3 TARGETING PEPTIDES AND CONSTRUCTS THEREOF” (MARIANA ONCOLOGY INC., priority 2023, published 2025).

Numbered stars: 1 amine (or outer) side, 2 acyl side, 3 side chain; on linkers, the order of the positions; unused ones are H or OH. Bridge positions count the residues as written; N and C are the ends. Square brackets hold non-standard residues; d marks the D form. Peptide text beside a SMILES is read from it. * marks the point of attachment. Ala(piperidin-4-yl) = O=C([C@H](CC1CCN([*:3])CC1)N[*:1])[*:2]; DOTA = O=C(O)CN1CCN(CC(=O)O)CCN(CC(=O)*)CCN(CC(=O)O)CC1; 2Nal = N[C@@H](Cc1ccc2ccccc2c1)C(=O)O; 3Pal = N[C@@H](Cc1cccnc1)C(=O)O; 4Pal = N[C@@H](Cc1ccncc1)C(=O)O Where only a bound is given, the exact number is not on record here.

In the case of `CC[C@H](C)[C@H](NC(=O)[C@@H](NC(=O)[C@H](Cc1c[nH]c2ccccc12)NC(C)=O)[C@@H](C)O)C(=O)N[C@H]1CSSC[C@@H](C(=O)N[C@@H](Cc2c[nH]c3ccccc23)C(=O)N2CCC[C@H]2C(=O)N[C@H](CCCCNC(=O)CN2CCN(CC(=O)O)CCN(CC(=O)O)CCN(CC(=O)O)CC2)C(N)=O)NC(=O)[C@H](CC(=O)O)NC(=O)[C@H](Cc2cnc[nH]2)NC(=O)[C@H](Cc2ccc3ccccc3c2)NC(=O)[C@H](CC(N)=O)NC(=O)[C@H](Cc2ccncc2)NC1=O` [compound 264, Ac-W-T-I-C(3)-(4Pya)-N-(2Nal)-H-D-C(3)-W-P-[D-Lys(DOTA)]-NH2] (Ac-WTIC[4Pal]N[2Nal]HDCWP[dK](DOTA)-NH2; disulfide 4-10), the dissociation constant (Kd) (in general, the free concentration of one partner at which half of the binding sites on the other are occupied at equilibrium, for simple one-to-one binding) at human DLL3 is less than 1 nM. In the data set on SHP-77 tumors, the “kidney uptake (% IA/g)” value is recorded as “C (0 < % IA/g ≤ 10 in kidney)” and the “tumor uptake (% IA/g)” value is recorded as “A (0 < % IA/g ≤ 5 in tumor)”. In addition, the “% Binding” value with CT26.DLL3 cells [1] is given as “A (%≤25)”. Besides, in the data set with CT26.DLL3 cells [2], the “% Internalization (out of bound fraction)” value was “B (25<%≤50)”.

As for `CC[C@H](C)[C@H](NC(=O)[C@@H](NC(=O)[C@H](Cc1c[nH]c2ccccc12)NC(C)=O)[C@@H](C)O)C(=O)N[C@H]1CSSC[C@@H](C(=O)N[C@@H](Cc2c[nH]c3ccccc23)C(=O)N2CCC[C@H]2C(=O)N[C@H](CCCCNC(=O)CN2CCN(CC(=O)O)CCN(CC(=O)O)CCN(CC(=O)O)CC2)C(N)=O)NC(=O)[C@H](CC(=O)O)NC(=O)[C@H](Cc2cnc[nH]2)NC(=O)[C@H](Cc2ccc3ccccc3c2)NC(=O)[C@H](CC(N)=O)NC(=O)[C@H](Cc2cccnc2)NC1=O` [compound 263, Ac-W-T-I-C(3)-(3Pya)-N-(2Nal)-H-D-C(3)-W-P-[D-Lys(DOTA)]-NH2] (Ac-WTIC[3Pal]N[2Nal]HDCWP[dK](DOTA)-NH2; disulfide 4-10), the equilibrium dissociation constant (Kd) on human DLL3 was less than 1 nM. Besides, in the data set on SHP-77 tumors, the “kidney uptake (% IA/g)” value is given as “C (0 < % IA/g ≤ 10 in kidney)” and the “tumor uptake (% IA/g)” value was “A (0 < % IA/g ≤ 5 in tumor)”. Besides, the “% Binding” value with CT26.DLL3 cells [1] is reported as “A (%≤25)”. For the same molecule, the “% Internalization (out of bound fraction)” value with CT26.DLL3 cells [2] is on record as “B (25<%≤50)”.

`CC[C@H](C)[C@H](NC(=O)[C@@H](NC(=O)[C@H](Cc1c[nH]c2ccccc12)NC(C)=O)[C@@H](C)O)C(=O)N[C@H]1CSSC[C@@H](C(=O)N[C@@H](Cc2c[nH]c3ccccc23)C(=O)N2CCC[C@H]2C(=O)N[C@H](CCCCNC(=O)CN2CCN(CC(=O)O)CCN(CC(=O)O)CCN(CC(=O)O)CC2)C(N)=O)NC(=O)[C@H](CC(=O)O)NC(=O)[C@H](Cc2cnc[nH]2)NC(=O)[C@H](Cc2ccc3ccccc3c2)NC(=O)[C@H](CC2CCNCC2)NC(=O)[C@H](CC(N)=O)NC1=O` [compound 267, Ac-W-T-I-C(3)-N-[3-(4-piperidinyl)-Ala]-(2Nal)-H-D-C(3)-W-P-[D-Lys(DOTA)]-NH2] (Ac-WTICN[Ala(piperidin-4-yl)][2Nal]HDCWP[dK](DOTA)-NH2; disulfide 4-10): the Kd on human DLL3 is less than 1 nM. In addition, in the data set on SHP-77 tumors, the “kidney uptake (% IA/g)” value is “C (0 < % IA/g ≤ 10 in kidney)” and the “tumor uptake (% IA/g)” value is recorded as “A (0 < % IA/g ≤ 5 in tumor)”. Also, the “% Binding” value in the data set on CT26.DLL3 cells [1] was “A (%≤25)”. Moreover, the “% Internalization (out of bound fraction)” value with CT26.DLL3 cells [2] is listed as “B (25<%≤50)”.

As to Ac-WTICNN[2Nal]HNCWP[dK](DOTA)-NH2 (disulfide 4-10; also: 177Lu chelated in DOTA, also called [177Lu]Lu-test peptide) [[177Lu]Lu-labelled Cpd No. 211], in the data set with DLL3 on CT26.DLL3 cells, the “% Binding” value was not above 25%.

For Ac-WTICNN[2Nal]KDCWP[dK](DOTA)-NH2 (disulfide 4-10; also: 177Lu in the DOTA chelator, also called [177Lu]Lu-test peptide) [[177Lu]Lu-labelled Cpd No. 237], the “% Binding” value in the data set with DLL3 on CT26.DLL3 cells is not above 25%.
